Assay results as given in patent US9938262B2, “Benzamides” (Merck Patent GmbH, priority 2011, dated 2018).

Molecular target: T1, FSHR (Homo sapiens, UniProt P23945)
T1 construct: expressed in transfected cells; host or cells: CHO (Cho-FSHR-LUC-1-1-43)
Test: EC50 of cyclic AMP production in CHO FSHR cells + EC20 FSH (Assay A)
Type: cell-based
Conditions: CHO FSHR cells + EC20 FSH; Table 2; read-out: Assay A EC50 of cyclic AMP production
Summary of the method: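 cAMP HTRF ratio (665/620 nm) read after 1 h, 37 °C exposure of CHO-FSHR cells to compound in presence of EC20 FSH ([…]) and IBMX 200 μM. Responses given relative to FSH standard maximum; EC50 derived.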

T1 sequence (P23945 18-695): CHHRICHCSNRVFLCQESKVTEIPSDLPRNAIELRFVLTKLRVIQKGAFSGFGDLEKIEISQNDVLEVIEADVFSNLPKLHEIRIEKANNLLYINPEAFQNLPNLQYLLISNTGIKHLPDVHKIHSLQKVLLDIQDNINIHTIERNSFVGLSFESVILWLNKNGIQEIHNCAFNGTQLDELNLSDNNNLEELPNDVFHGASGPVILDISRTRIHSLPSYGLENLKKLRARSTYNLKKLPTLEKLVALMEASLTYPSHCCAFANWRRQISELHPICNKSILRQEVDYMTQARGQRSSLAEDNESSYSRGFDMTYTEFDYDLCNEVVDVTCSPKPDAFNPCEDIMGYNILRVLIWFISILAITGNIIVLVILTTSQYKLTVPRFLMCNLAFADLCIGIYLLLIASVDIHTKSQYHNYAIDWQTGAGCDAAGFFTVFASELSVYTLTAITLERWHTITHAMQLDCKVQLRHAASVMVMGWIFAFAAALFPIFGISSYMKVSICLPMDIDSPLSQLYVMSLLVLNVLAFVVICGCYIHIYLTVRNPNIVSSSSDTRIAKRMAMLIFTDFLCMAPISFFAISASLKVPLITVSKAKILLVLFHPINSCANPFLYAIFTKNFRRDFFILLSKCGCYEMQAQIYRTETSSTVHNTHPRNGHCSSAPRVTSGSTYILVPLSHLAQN
T1 sequence (P01215 25-116 partner): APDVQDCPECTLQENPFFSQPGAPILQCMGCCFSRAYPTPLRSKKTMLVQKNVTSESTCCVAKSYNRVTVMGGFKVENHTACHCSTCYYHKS
T1 sequence (P01225 19-129 partner): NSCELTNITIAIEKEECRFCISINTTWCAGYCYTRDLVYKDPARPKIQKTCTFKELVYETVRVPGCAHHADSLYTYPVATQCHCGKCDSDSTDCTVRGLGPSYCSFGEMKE

| SMILES | EC50 |
| --- | --- |
| Cc1ccccc1N1CCN(c2ccc(C(=O)N[C@H]3CCC[C@H](O)C3)cc2NC(=O)c2coc(C3CC3)n2)CC1 [Compound 576] | < 100 nM |
| Cc1ccccc1N1CCN(c2ccc(C(=O)N[C@H]3CCC[C@H](O)[C@@H]3O)cc2NC(=O)c2coc(C3CC3)n2)CC1 [Compound 578] | < 100 nM |
| CCOc1cc(CCCNC(=O)c2ccc(N3CCN(c4ccccc4C)CC3)c(NC(=O)c3ccco3)c2)ccc1OC [Compound 579] | 100 to 1000 nM |
| CCOc1cc(CCCNC(=O)c2ccc(N3CCN(c4ccccc4C)CC3)c(NC(=O)c3coc(C4CC4)n3)c2)ccc1OC [Compound 580] | 100 to 1000 nM |
| CCOc1cc(CCCNC(=O)c2ccc(N3CCN(c4ccccc4C)CC3)c(NC(=O)c3ccc(C)o3)c2)ccc1OC [Compound 581] | 100 to 1000 nM |
| Cc1ccccc1N1CCN(c2ccc(C(=O)NC[C@@H](O)c3ccccc3)cc2NC(=O)c2ccco2)CC1 [Compound 582] | 100 to 1000 nM |
| Cc1ccc(C(=O)Nc2cc(C(=O)NC[C@@H](O)c3ccccc3)ccc2N2CCN(c3ccccc3C)CC2)o1 [Compound 583] | 1000 to 10000 nM |
| Cc1ccc(C(=O)Nc2cc(C(=O)NC[C@H](O)c3ccccc3)ccc2N2CCN(c3ccccc3C)CC2)o1 [Compound 584] | 1000 to 10000 nM |
| Cc1ccccc1N1CCN(c2ccc(C(=O)NC[C@H](O)c3ccccc3)cc2NC(=O)c2ccco2)CC1 [Compound 585] | < 100 nM |
| Cc1ccccc1N1CCN(c2ccc(C(=O)N3CCC4(COC4)C3)cc2NC(=O)c2ccco2)CC1 [Compound 587] | 1000 to 10000 nM |
| Cc1ccc(C(=O)Nc2cc(C(=O)NCCCc3cccc(O)c3)ccc2N2CCN(c3ccccc3C)CC2)o1 [Compound 588] | 100 to 1000 nM |
| Cc1ccccc1N1CCN(c2ccc(C(=O)NCCCc3cccc(O)c3)cc2NC(=O)c2ccco2)CC1 [Compound 589] | 100 to 1000 nM |
| Cc1ccccc1N1CCN(c2ccc(C(=O)N3CC4(COC4)C3)cc2NC(=O)c2coc(C3CC3)n2)CC1 [Compound 590] | 100 to 1000 nM |
| Cc1ccc(C(=O)Nc2cc(C(=O)N3CC4(COC4)C3)ccc2N2CCN(c3ccccc3C)CC2)o1 [Compound 591] | > 10000 nM |

Further lines, results first:

| EC50 | SMILES |
| --- | --- |
| 1000 to 10000 nM | Cc1ccccc1N1CCN(c2ccc(C(=O)N3CC4(COC4)C3)cc2NC(=O)c2ccco2)CC1 [Compound 592] |
| 1000 to 10000 nM | Cc1ccc(C(=O)Nc2cc(C(=O)N3CCC4(COC4)C3)ccc2N2CCN(c3ccccc3C)CC2)o1 [Compound 593] |
| 1000 to 10000 nM | Cc1ccccc1N1CCN(c2ccc(C(=O)N3CCC4(COC4)C3)cc2NC(=O)c2coc(C3CC3)n2)CC1 [Compound 594] |
| 1000 to 10000 nM | N#Cc1nccnc1N1CCN(c2ccc(C(=O)NCCCN3CCCC3=O)cc2NC(=O)c2coc(C3CC3)n2)CC1 [Compound 595] |
| 1000 to 10000 nM | O=C(NCCCN1CCCC1=O)c1ccc(N2CCN(c3cccnn3)CC2)c(NC(=O)c2coc(C3CC3)n2)c1 [Compound 596] |
| > 10000 nM | Cc1cc(N2CCN(c3ccc(C(=O)NCCCN4CCCC4=O)cc3NC(=O)c3coc(C4CC4)n3)CC2)ncn1 [Compound 597] |
| 1000 to 10000 nM | Cc1nnc(N2CCN(c3ccc(C(=O)NCCCN4CCCC4=O)cc3NC(=O)c3coc(C4CC4)n3)CC2)s1 [Compound 598] |
| > 10000 nM | COc1cncc(N2CCN(c3ccc(C(=O)NCCCN4CCCC4=O)cc3NC(=O)c3coc(C4CC4)n3)CC2)c1 [Compound 599] |
| 100 to 1000 nM | CN(C)c1ccc(N2CCN(c3ccc(C(=O)NCCCN4CCCC4=O)cc3NC(=O)c3coc(C4CC4)n3)CC2)nn1 [Compound 602] |
| 1000 to 10000 nM | Cc1ccccc1N1CCN(c2ccc(C(=O)NCCCN3CCCC3=O)cc2NC(=O)c2coc(C3CC3)n2)CC1=O [Compound 605] |
| 100 to 1000 nM | Cc1ccccc1N1CCN(c2ccc(C(=O)NCCNC3CS(=O)(=O)C[C@H]3O)cc2NC(=O)c2ccco2)CC1 (stereo partly shown) [Compound 606] |
| 100 to 1000 nM | Cc1ccccc1N1CCN(c2ccc(C(=O)NCCNC3CS(=O)(=O)C[C@@H]3O)cc2NC(=O)c2ccco2)CC1 (stereo partly shown) [Compound 607] |
| 100 to 1000 nM | Cc1ccccc1N1CCN(c2ccc(C(=O)NCCCN3CCC[C@@H]3C(N)=O)cc2NC(=O)c2ccco2)CC1 [Compound 608] |
| 100 to 1000 nM | Cc1ccccc1N1CCN(c2ccc(C(=O)NCCCN3CCC[C@H]3C(N)=O)cc2NC(=O)c2ccco2)CC1 [Compound 609] |
